Ten compounds from ChEMBL document CHEMBL1121526, “Use of acetylacetone to prepare a prodrug of cycloserine” (1980) can be followed below.

Structures are written as SMILES.

The subject of one experiment is Escherichia coli. Put plainly: antibacterial activity was reported as zones of inhibition in the disk diffusion assay using Escherichia coli. In kind it is functional.
For experiment [1], the species on record is Mus musculus. Put plainly: The compound was tested for urinary recovery was assayed for its content for total cycloserine content employing the chemical assay in mouse. Format: functional, Urine.
In a further experiment the test system is Staphylococcus aureus. Briefly: antibacterial activity was reported as zones of inhibition in the disk diffusion assay using staphylococcus aureus. In kind it is functional.
The species entered for experiment [2] is Mus musculus. Briefly: The compound was tested for urinary recovery was assayed for its content of free cycloserine by employing the bioassay in mouse. In kind it is functional, Urine.

For `O=C(NC1CONC1=O)C1CCCCC1` (stereo not given), the Diameter in the experiment on Escherichia coli and with Staphylococcus aureus was less than 6 mm throughout. Further, the “Urinary recovery of total cycloserine” value in the experiment listed under Mus musculus [1] is 53%. The “Urinary recovery of free cycloserine” value in the experiment filed under Mus musculus [2] worked out at 1%.

Turning to `C/C(O)=C\C(C)=N\C1CONC1=O` (stereo not given), the Diameter came to 39 mm with Escherichia coli and 36 mm with Staphylococcus aureus. For the same compound, the “Urinary recovery of total cycloserine” value in the experiment listed under Mus musculus [1] was found to be 64%. Also, in the experiment filed under Mus musculus [2], the “Urinary recovery of free cycloserine” value is reported as 93%.

For `CNC(=O)NC1CON(C(=O)NC)C1=O` (stereo not given), the Diameter in the experiment on Escherichia coli and with Staphylococcus aureus was less than 6 mm in each case. Also, in the experiment filed under Mus musculus [1], the “Urinary recovery of total cycloserine” value is on record as less than 1%. In the experiment listed under Mus musculus [2], the “Urinary recovery of free cycloserine” value was less than 1%.

As for `CNC(=O)NC1CONC1=O` (stereo not given), the Diameter with Escherichia coli amounted to 22 mm; in the experiment with Staphylococcus aureus, 25 mm. Further, the “Urinary recovery of total cycloserine” value in the experiment filed under Mus musculus [1] is given as 16%. Further, in the experiment filed under Mus musculus [2], the “Urinary recovery of free cycloserine” value is less than 1%.

Turning to `CCOC(=O)NC1CONC1=O` (stereo not given), the Diameter with Escherichia coli and with Staphylococcus aureus was less than 6 mm throughout. For the same compound, the “Urinary recovery of total cycloserine” value in the experiment listed under Mus musculus [1] is 33%. In addition, in the experiment listed under Mus musculus [2], the “Urinary recovery of free cycloserine” value is listed as less than 1%.

As for `O=C(CCl)NC1CON(C(=O)CCl)C1=O` (stereo not given), the Diameter in the experiment on Escherichia coli and in the experiment with Staphylococcus aureus was less than 6 mm throughout. Also, the “Urinary recovery of total cycloserine” value in the experiment filed under Mus musculus [1] is 43%. For the same compound, the “Urinary recovery of free cycloserine” value in the experiment filed under Mus musculus [2] was determined as 1.1%.

Take `N[C@@H]1CONC1=O` [CYCLOSERINE]: the Diameter was found to be 39 mm in the experiment on Escherichia coli and 36 mm in the experiment with Staphylococcus aureus. Moreover, the “Urinary recovery of total cycloserine” value in the experiment filed under Mus musculus [1] is listed as 45%. Also, the “Urinary recovery of free cycloserine” value in the experiment filed under Mus musculus [2] is given as 64%.

With `O=C(CCl)NC1CONC1=O` (stereo not given), the Diameter in the experiment on Escherichia coli and in the experiment on Staphylococcus aureus was less than 6 mm in each case. In addition, the “Urinary recovery of total cycloserine” value in the experiment filed under Mus musculus [1] amounted to 70%. Also, the “Urinary recovery of free cycloserine” value in the experiment listed under Mus musculus [2] was 1%.

For the compound `CC1(C)CC(O)=C/C(=N/C2CONC2=O)C1` (stereo not given), the Diameter in the experiment on Escherichia coli and with Staphylococcus aureus was less than 6 mm each time. The “Urinary recovery of total cycloserine” value in the experiment listed under Mus musculus [1] is listed as 55%. Further, the “Urinary recovery of free cycloserine” value in the experiment listed under Mus musculus [2] was less than 1%.

Take `O=C(NC(=O)C(Cl)(Cl)Cl)NC1CONC1=O` (stereo not given): the Diameter is 14 mm in the experiment with Escherichia coli and less than 6 mm in the experiment on Staphylococcus aureus. For the same compound, the “Urinary recovery of total cycloserine” value in the experiment filed under Mus musculus [1] worked out at 55%. Further, in the experiment filed under Mus musculus [2], the “Urinary recovery of free cycloserine” value is less than 1%.
